How the values were obtained:
Format in all cases: biochemical
AKT3 = molecular target: T1, AKT3 (Homo sapiens, UniProt Q9Y243); experiment: AKT Kinase Assay (IMAP fluorescent polarisation) vs AKT3
T1 construct: purchased SignalChem
Protocol: (§1) Testing of the compounds was performed using an AKT Kinase Assay:
(§2) Activated AKT isoforms 1, 2 and 3 were assayed utilising a 5′ FAM Crosstide (Seq. GRPRTSSFAEG-OH)(SEO ID NO: 1). The extent of kinase phosphorylation was determined by fluorescent polarisation using IMAP progressive binding reagent, which introduces binding beads which allow the reagent to specifically bind to phosphate residues via covalent co-ordination complex bonds.
(§3) iMAP binding solution stops Crosstide/kinase interaction and specifically binds phosphorylated substrates. The degree of phosphorylation is determined by fluorescent polarisation (excitation 485 nm; emission 528 nm) or the reduction in speed of rotation of the excited substrate.
(§4) The following materials were used in the assay: • a) Activated AKT isoforms (SignalChem.) dissolved in Complete Reaction buffer at a pre-determined concentration selected so that the assay was carried out in the linear range. • b) AKT substrate peptide: FAM Crosstide (R7110) Molecular Devices, diluted in complete reaction buffer. • c) iMAP Progressive Screening Express Kit (R8127) Molecular Devices • d) Complete Reaction Buffer containing 0.1% BSA, 10 mM Tris-HCl, 10 mM MgCl2, 0.05% NaN3 and 0.01% phosphate free BSA, 1 mM DTT • e) Progressive Binding Solution containing 75% Buffer A, 25% Buffer B and low volume Binding Reagent which contains the binding entity for the assay • f) ATP diluted in complete reaction buffer • g) Black polystyrene 384 well assay plates (Nunc). • h) Biotek Synergy 4 Hybrid Plate reader.
(§5) 5 μl of test compound was dissolved in DMSO (Sigma Aldrich) and serially diluted in complete reaction buffer to give a fourteen point half log dose response and plated into 384 well black plates. The compound was incubated at room temperature with activated AKT isoform ([…] ) at the pre-determined concentration, for 45 minutes.
(§6) 2.5 μl of ATP solution mixed with 2.5 μl of AKT substrate peptide (FAM Crosstide (R7110) Molecular Devices) were dispensed into each well and the plate centrifuged at 1000 rpm for 20 seconds to ensure homogenous mixing of reagents. The reaction mix was incubated in the dark for one hour at room temperature.
(§7) The kinase reaction was stopped by the addition of Progressive Binding Solution and the mixture allowed to equilibrate for one hour in the dark, at room temperature.
(§8) The fluorescent polarisation generated in each well was determined using a […] Synergy 4 Hybrid plate reader. In brief, each reaction solution was excited at 485 nm with the emission measured at 528 nm in both the parallel and perpendicular pathway.
(§9) The polarisation value generated in each well was calculated by Gen5 software (Biotek) and the % inhibition of kinase activity compared to vehicle control was calculated via GraphPad Prism. IC50 values for each compound were calculated by non-linear regression analysis using Prism software.
(§10) All plates were internally controlled by two methods. Firstly, by calculating the signal:noise ratio; based on kinase polarisation without inhibitor and polarisation generated by complete reaction buffer in the absence of activated kinase. Secondly by determining IC50 values generated by known inhibitors of the AKT isoforms.

AKT2 = molecular target: T2, AKT2 (Homo sapiens, UniProt P31751); experiment: AKT Kinase Assay (IMAP fluorescent polarisation) vs AKT2
T2 construct: purchased SignalChem
T2 sequence (P31751 whole entry): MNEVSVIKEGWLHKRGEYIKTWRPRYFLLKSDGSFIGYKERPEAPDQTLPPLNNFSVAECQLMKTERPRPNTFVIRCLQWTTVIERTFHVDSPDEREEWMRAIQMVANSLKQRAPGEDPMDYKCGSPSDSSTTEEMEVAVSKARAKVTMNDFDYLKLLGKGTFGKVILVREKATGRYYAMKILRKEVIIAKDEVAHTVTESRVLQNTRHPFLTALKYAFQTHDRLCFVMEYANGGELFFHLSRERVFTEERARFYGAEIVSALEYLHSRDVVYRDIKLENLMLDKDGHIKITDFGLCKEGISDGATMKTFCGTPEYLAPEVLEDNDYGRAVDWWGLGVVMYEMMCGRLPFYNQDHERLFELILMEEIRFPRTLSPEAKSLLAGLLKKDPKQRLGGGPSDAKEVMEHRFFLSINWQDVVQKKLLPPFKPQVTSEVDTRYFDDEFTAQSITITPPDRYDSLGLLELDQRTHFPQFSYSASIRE
Protocol: as §1, §2, §3, §4, §5, §6, §7, §8, §9, §10

AKT1 = molecular target: T3, AKT1 (Homo sapiens, UniProt P31749); experiment: AKT Kinase Assay (IMAP fluorescent polarisation) vs AKT1
T3 construct: purchased SignalChem
T3 sequence (P31749 whole entry): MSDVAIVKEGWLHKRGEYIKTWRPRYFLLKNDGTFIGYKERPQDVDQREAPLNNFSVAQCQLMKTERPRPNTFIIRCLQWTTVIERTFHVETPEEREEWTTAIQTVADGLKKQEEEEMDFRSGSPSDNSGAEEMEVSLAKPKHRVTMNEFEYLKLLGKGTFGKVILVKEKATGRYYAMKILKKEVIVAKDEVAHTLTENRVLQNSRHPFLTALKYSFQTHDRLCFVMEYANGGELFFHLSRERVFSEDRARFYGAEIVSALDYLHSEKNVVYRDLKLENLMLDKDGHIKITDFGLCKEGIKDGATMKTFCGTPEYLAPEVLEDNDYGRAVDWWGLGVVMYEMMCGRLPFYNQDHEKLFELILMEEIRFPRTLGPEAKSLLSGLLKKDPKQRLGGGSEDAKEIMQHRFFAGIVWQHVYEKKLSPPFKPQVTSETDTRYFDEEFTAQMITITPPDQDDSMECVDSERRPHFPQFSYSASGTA
Protocol: as §1, §2, §3, §4, §5, §6, §7, §8, §9, §10

T1 sequence (Q9Y243 whole entry): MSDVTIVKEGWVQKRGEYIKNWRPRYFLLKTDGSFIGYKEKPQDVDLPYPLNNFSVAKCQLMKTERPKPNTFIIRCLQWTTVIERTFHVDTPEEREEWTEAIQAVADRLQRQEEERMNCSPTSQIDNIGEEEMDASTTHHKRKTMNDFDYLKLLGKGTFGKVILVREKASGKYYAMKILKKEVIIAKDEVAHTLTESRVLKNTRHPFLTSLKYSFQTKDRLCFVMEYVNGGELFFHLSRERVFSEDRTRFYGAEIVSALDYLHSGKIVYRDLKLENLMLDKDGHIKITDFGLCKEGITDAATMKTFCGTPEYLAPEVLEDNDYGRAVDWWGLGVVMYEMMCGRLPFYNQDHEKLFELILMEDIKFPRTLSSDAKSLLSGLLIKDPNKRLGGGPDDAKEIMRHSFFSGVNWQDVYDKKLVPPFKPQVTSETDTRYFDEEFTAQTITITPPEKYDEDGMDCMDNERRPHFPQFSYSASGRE

IC50 (AKT3)	IC50 (AKT2)	IC50 (AKT1)	Structure (SMILES)
> 10000 nM	≤ 100 nM	100 to 1000 nM	N#CCN1c2cc(-c3ccccc3)c(-c3ccc(C4(N)CCC4)cc3)nc2OCS1(=O)=O [Example 76, 2-(6-(4-(1-aminocyclobutyl)phenyl)-2,2-dioxido-7-phenyl-1H-pyrido[3,2-e][1,3,4]oxathiazin-1-yl)acetonitrile]
1000 to 10000 nM	100 to 1000 nM	1000 to 10000 nM	NC1(c2ccc(-c3nc4c(cc3-c3ccccc3)N(Cc3ccncc3)C(=O)CO4)cc2)CCC1 [Example 45, 6-(4-(1-aminocyclobutyl)phenyl)-7-phenyl-1-(pyridin-4-ylmethyl)-1H-pyrido[2,3-b][1,4]oxazin-2(3H)-one]
> 10000 nM	> 10000 nM	1000 to 10000 nM	CN1C(=O)COc2nc(-c3ccc(C4(N)CCC4)cc3)c(CC3CC3)cc21 [Example 133, 6-(4-(1-aminocyclobutyl)phenyl)-7-(cyclopropylmethyl)-1-methyl-1H-pyrido[2,3-b][1,4]oxazin-2(3H)-one]
> 10000 nM	1000 to 10000 nM	100 to 1000 nM	CN(C)CCN1CCc2nc(-c3ccc(C4(N)CCC4)cc3)c(-c3ccccc3)cc2C1=O [Example 25]
100 to 1000 nM	≤ 100 nM	≤ 100 nM	CCN1C(=O)COc2nc(-c3ccc([C@]4(N)C[C@](C)(O)C4)cc3)c(-c3ccccc3)cc21 [Example 143, 6-(4-((1r,3r)-1-amino-3-hydroxy-3-methylcyclobutyl)phenyl)-1-ethyl-7-phenyl-1H-pyrido[2,3-b][1,4]oxazin-2(3H)-one]
> 10000 nM	100 to 1000 nM	100 to 1000 nM	N#CCN1C(=O)COc2nc(-c3ccc([C@]4(N)C[C@@H](O)C4)cc3)c(-c3ccccc3)cc21 [Example 147, 2-(6-(4-((1s,3s)-1-amino-3-hydroxycyclobutyl)phenyl)-2-oxo-7-phenyl-2,3-dihydro-1H-pyrido[2,3-b][1,4]oxazin-1-yl)acetonitrile]
1000 to 10000 nM	100 to 1000 nM	≤ 100 nM	NC1(c2ccc(-c3nc4c(cc3-c3ccccc3)-c3ncncc3CC4)cc2)CCC1 [Example 16, 1-(4-(9-phenyl-5,6-dihydropyrido[2,3-h]quinazolin-8-yl)phenyl)-cyclobutanamine]
1000 to 10000 nM	100 to 1000 nM	100 to 1000 nM	CCN1C(=O)COc2nc(-c3ccc([C@]4(N)C[C@@H](O)C4)cc3)c(-c3ccccc3)cc21 [Example 139, 6-(4-((1s,3s)-1-amino-3-hydroxycyclobutyl)phenyl)-1-ethyl-7-phenyl-1H-pyrido[2,3-b][1,4]oxazin-2(3H)-one]
100 to 1000 nM	≤ 100 nM	100 to 1000 nM	NC1(c2ccc(-c3nc4c(cc3-c3ccccc3)N(CC3CC3)C(=O)CO4)cc2)CCC1 [Example 55, 6-(4-(1-aminocyclobutyl)phenyl)-1-(cyclopropylmethyl)-7-phenyl-1H-pyrido[2,3-b][1,4]oxazin-2(3H)-one]
> 10000 nM	100 to 1000 nM	100 to 1000 nM	CS(=O)(=O)N1CCOc2nc(-c3ccc(C4(N)CCC4)cc3)c(-c3ccccc3)cc21 [Example 70, 1-(4-(1-(methylsulfonyl)-7-phenyl-2,3-dihydro-1H-pyrido[2,3-b][1,4]oxazin-6-yl)phenyl)cyclobutanamine]
1000 to 10000 nM	100 to 1000 nM	100 to 1000 nM	NC1(c2ccc(-c3nc4c(cc3-c3ccccc3)-c3n[nH]c(N5CCOCC5)c3CC4)cc2)CCC1 [Example 13, 1-(4-(3-morpholino-8-phenyl-4,5-dihydro-2H-pyrazolo[3,4-f]quinolin-7-yl)phenyl)cyclobutanamine]
1000 to 10000 nM	100 to 1000 nM	100 to 1000 nM	N#CCn1nc2n(c1=O)-c1cc(-c3ccccc3)c(-c3ccc(C4(N)CCC4)cc3)nc1OC2 [Example 101, 2-(7-(4-(1-aminocyclobutyl)phenyl)-1-oxo-8-phenyl-1H-pyrido[2,3-b][1,2,4]triazolo[4,3-d][1,4]oxazin-2(4H)-yl)acetonitrile]
1000 to 10000 nM	1000 to 10000 nM	100 to 1000 nM	Cn1ncc2c1-c1cc(-c3ccccc3)c(-c3ccc(C4(N)CCC4)cc3)nc1CC2 [Example 6, 1-(4-(1-methyl-8-phenyl-4,5-dihydro-1H-pyrazolo[3,4-f]quinolin-7-yl)phenyl)cyclobutanamine]
1000 to 10000 nM	100 to 1000 nM	≤ 100 nM	C[C@]1(O)C[C@@](N)(c2ccc(-c3nc4c(cc3-c3ccccc3)-n3c(n[nH]c3=O)CO4)cc2)C1 [Example 79, 7-(4-((1r,3r)-1-amino-3-hydroxy-3-methylcyclobutyl)phenyl)-8-phenyl-2,4-dihydro-1H-pyrido[2,3-b][1,2,4]triazolo[4,3-d][1,4]oxazin-1-one]
> 10000 nM	1000 to 10000 nM	100 to 1000 nM	CN1CCOc2nc(-c3ccc(C4(N)CCC4)cc3)c(-c3ccccc3)cc21 [Example 40, 1-(4-(1-methyl-7-phenyl-2,3-dihydro-1H-pyrido[2,3-b][1,4]oxazin-6-yl)phenyl)cyclobutanamine]
> 10000 nM	> 10000 nM	1000 to 10000 nM	NC1(c2ccc(-c3nc4c(cc3-c3ccccc3)C(=O)COC4)cc2)CCC1 [Example 127, 2-(4-(1-aminocyclobutyl)phenyl)-3-phenyl-6,8-dihydro-5H-pyrano[3,4-b]pyridin-5-one]
> 10000 nM	1000 to 10000 nM	100 to 1000 nM	CN1C(=O)C(CCO)Oc2nc(-c3ccc(C4(N)CCC4)cc3)c(-c3ccccc3)cc21 (stereo not drawn) [Example 77, 6-(4-(1-aminocyclobutyl)phenyl)-3-(2-hydroxyethyl)-1-methyl-7-phenyl-1H-pyrido[2,3-b][1,4]oxazin-2(3H)-one]
> 10000 nM	1000 to 10000 nM	1000 to 10000 nM	CN1CCC(=O)N(C)c2cc(-c3ccccc3)c(-c3ccc(C4(N)CCC4)cc3)nc21 [Example 111, 7-(4-(1-aminocyclobutyl)phenyl)-1,5-dimethyl-8-phenyl-4,5-dihydro-1H-pyrido[2,3-b][1,4]diazepin-2(3H)-one]
1000 to 10000 nM	1000 to 10000 nM	100 to 1000 nM	CC(=O)CN1C(=O)COc2nc(-c3ccc(C4(N)CCC4)cc3)c(-c3ccccc3)cc21 [Example 36, 6-(4-(1-aminocyclobutyl)phenyl)-1-(2-oxopropyl)-7-phenyl-1H-pyrido[2,3-b][1,4]oxazin-2(3H)-one]
1000 to 10000 nM	≤ 100 nM	100 to 1000 nM	NC1(c2ccc(-c3nc4c(cc3-c3ccccc3)N(c3cccnc3)CCO4)cc2)CCC1 [Example 91, 1-(4-(7-phenyl-1-(pyridin-3-yl)-2,3-dihydro-1H-pyrido[2,3-b][1,4]oxazin-6-yl)phenyl)cyclobutanamine]
> 10000 nM	1000 to 10000 nM	100 to 1000 nM	CS(=O)(=O)c1[nH]nc2c1CCc1nc(-c3ccc(C4(N)CCC4)cc3)c(-c3ccccc3)cc1-2 [Example 10, 1-(4-(3-(methylsulfonyl)-8-phenyl-4,5-dihydro-2H-pyrazolo[3,4-f]quinolin-7-yl)phenyl)cyclobutanamine]
> 10000 nM	1000 to 10000 nM	1000 to 10000 nM	NC1(c2ccc(-c3nc4c(cc3-c3ccccc3)C(=O)CCC4)cc2)CCC1 [Example 1, 2-(4-(1-aminocyclobutyl)phenyl)-3-phenyl-7,8-dihydroquinolin-5(6H)-one]
1000 to 10000 nM	1000 to 10000 nM	100 to 1000 nM	NC1(c2ccc(-c3nc4c(cc3-c3ccccc3)NC(=O)C(CCO)O4)cc2)CCC1 (stereo not drawn) [Example 71, 6-(4-(1-aminocyclobutyl)phenyl)-3-(2-hydroxyethyl)-7-phenyl-1H-pyrido[2,3-b][1,4]oxazin-2(3H)-one]
1000 to 10000 nM	100 to 1000 nM	100 to 1000 nM	CC(CO)(CO)CN1C(=O)COc2nc(-c3ccc(C4(N)CCC4)cc3)c(-c3ccccc3)cc21 [Example 106, 6-(4-(1-aminocyclobutyl)phenyl)-1-(3-hydroxy-2-(hydroxymethyl)-2-methylpropyl)-7-phenyl-1H-pyrido[2,3-b][1,4]oxazin-2(3H)-one]

Reference: patent publication US9221838B2, “Inhibitors of AKT activity” (ALMAC DISCOVERY LIMITED, priority 2009, dated 2015)
